Activity calls are given as the source filed them. No cut-off for these calls is given here.
Assays:
HT-1080 [1] = assay: Induction of apoptosis in human HT-1080 cells assessed as early apoptotic cells at 6 uM incubated for 12 hrs by Annexin V-FITC/PI staining based flow cytometric analysis (reference value: 2.36 %); type: functional
HT-1080 [2] = assay: Induction of apoptosis in human HT-1080 cells assessed as late apoptotic cells at 4 uM incubated for 48 hrs by Annexin V-FITC/PI staining based flow cytometric analysis (reference value: 1.15 %); type: functional
HT-1080 [3] = assay: Induction of apoptosis in human HT-1080 cells assessed as early apoptotic cells at 8 uM incubated for 48 hrs by Annexin V-FITC/PI staining based flow cytometric analysis (reference value: 2.33 %); type: functional
HT-1080 [4] = assay: Induction of apoptosis in human HT-1080 cells assessed as early apoptotic cells at 6 uM incubated for 48 hrs by Annexin V-FITC/PI staining based flow cytometric analysis (reference value: 2.36 %); type: functional
[5] = Toxicity in female nude mouse xenografted with human HT-1080 cells assessed as body weight loss at 40 mg/kg, ip administered every 2 days for 8 days; type: organism-based; settings: in vivo, 192 h, time 8 day
[6] = Cmax in Sprague-Dawley rat at 0.5 mg/kg, iv measured after 24 hrs by LC-MS/MS analysis; type: ADME, organism-based; settings: in vivo
HT-1080 [7] = assay: Induction of apoptosis in human HT-1080 cells assessed as viable cells at 6 uM incubated for 24 hrs by Annexin V-FITC/PI staining based flow cytometric analysis (reference value: 96.65 %); type: functional; settings: read-out: Activity
[8] = In vivo inhibition of IDH1 mutant in female nude mouse xenografted with human HT-1080 cells assessed as reduction in 2-HG levels in tumor at 20 mg/kg, ip administered twice at 1 hrs interval by resazurin fluorescence dye based Sigma MAK320-1 assay kit analysis relative to control; type: functional
HT-1080 [9] = assay: Induction of apoptosis in human HT-1080 cells assessed as early apoptotic cells at 2 uM incubated for 48 hrs by Annexin V-FITC/PI staining based flow cytometric analysis (reference value: 2.33 %); type: functional
HT-1080 [10] = assay: Induction of apoptosis in human HT-1080 cells assessed as early apoptotic cells at 6 uM incubated for 24 hrs by Annexin V-FITC/PI staining based flow cytometric analysis (reference value: 2.36 %); type: functional
HT-1080 [11] = assay: Induction of apoptosis in human HT-1080 cells assessed as necrotic cells at 6 uM incubated for 24 hrs by Annexin V-FITC/PI staining based flow cytometric analysis (reference value: 0.38 %); type: functional
HT-1080 [12] = assay: Cell cycle arrest in human HT-1080 cells assessed as S phase cells at 4 uM incubated for 24 hrs by PI staining based flow cytometric analysis (reference value: 18.3 %); type: functional
HT-1080 [13] = assay: Induction of apoptosis in human HT-1080 cells assessed as late apoptotic cells at 6 uM incubated for 24 hrs by Annexin V-FITC/PI staining based flow cytometric analysis (reference value: 0.60 %); type: functional
[14] = Cmax in Sprague-Dawley rat at 5 mg/kg, po measured after 24 hrs by LC-MS/MS analysis; type: ADME, organism-based; settings: in vivo
HT-1080 [15] = assay: Inhibition of cell migration in human HT-1080 cells incubated for 24 hrs by cell scratch assay; type: functional, cell-based; settings: dose 1-3 µM
HT-1080 [16] = assay: Induction of apoptosis in human HT-1080 cells assessed as necrotic cells at 8 uM incubated for 48 hrs by Annexin V-FITC/PI staining based flow cytometric analysis (reference value: 0.45 %); type: functional
HT-1080 [17] = assay: Antiproliferative activity against human HT-1080 cells harboring IDH1 R132C mutant assessed as reduction in cell viability incubated for 72 hrs by MTT assay; type: functional
[18] = test system: Isocitrate dehydrogenase [NADP] cytoplasmic (Homo sapiens), O75874 [R132H]; assay: Inhibition of recombinant human IDH1 R132H mutant extracted from Escherichia coli BL21 (DE3) cells using alpha-ketoglutarate as substrate at 2 uM incubated for 60 mins in presence of NADPH by absorbance based assay relative to control
Sequence of Isocitrate dehydrogenase [NADP] cytoplasmic (Homo sapiens), O75874 [R132H] (O75874 whole entry R132H): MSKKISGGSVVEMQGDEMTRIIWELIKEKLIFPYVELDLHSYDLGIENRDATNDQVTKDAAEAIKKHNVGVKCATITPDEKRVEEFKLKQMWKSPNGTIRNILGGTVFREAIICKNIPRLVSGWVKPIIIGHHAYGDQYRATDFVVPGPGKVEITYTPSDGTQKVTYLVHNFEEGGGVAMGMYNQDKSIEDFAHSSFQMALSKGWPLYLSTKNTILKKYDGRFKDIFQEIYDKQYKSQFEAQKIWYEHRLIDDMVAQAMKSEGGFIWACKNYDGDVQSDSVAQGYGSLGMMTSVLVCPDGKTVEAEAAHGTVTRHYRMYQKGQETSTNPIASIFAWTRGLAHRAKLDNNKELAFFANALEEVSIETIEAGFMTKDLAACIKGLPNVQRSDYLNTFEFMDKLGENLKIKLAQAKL

[19] = Clearance in Sprague-Dawley rat at 0.5 mg/kg, iv measured after 24 hrs by LC-MS/MS analysis; type: ADME, organism-based; settings: in vivo
[20] = Toxicity in Sprague-Dawley rat assessed as observable clinical signs at 5 mg/kg, po measured after 24 hrs; type: organism-based; settings: in vivo
HT-1080 [21] = assay: Induction of apoptosis in human HT-1080 cells assessed as necrotic cells at 2 uM incubated for 48 hrs by Annexin V-FITC/PI staining based flow cytometric analysis (reference value: 0.45 %); type: functional
HT-1080 [22] = assay: Induction of apoptosis in human HT-1080 cells assessed as viable cells at 2 uM incubated for 48 hrs by Annexin V-FITC/PI staining based flow cytometric analysis (reference value: 96.07 %); type: functional; settings: read-out: Activity
HT-1080 [23] = assay: Induction of apoptosis in human HT-1080 cells assessed as viable cells at 4 uM incubated for 48 hrs by Annexin V-FITC/PI staining based flow cytometric analysis (reference value: 96.07 %); type: functional; settings: read-out: Activity
HT-1080 [24] = assay: Antitumor activity against human HT-1080 cells xenografted in female nude mouse assessed as suppression of tumor growth at 40 mg/kg, ip administered every 2 days for 8 days; type: functional, organism-based; settings: time 8.0 day
HT-1080 [25] = assay: Induction of apoptosis in human HT-1080 cells assessed as necrotic cells at 4 uM incubated for 48 hrs by Annexin V-FITC/PI staining based flow cytometric analysis (reference value: 0.45 %); type: functional
HT-1080 [26] = assay: Induction of apoptosis in human HT-1080 cells assessed as viable cells at 6 uM incubated for 48 hrs by Annexin V-FITC/PI staining based flow cytometric analysis (reference value: 96.65 %); type: functional; settings: read-out: Activity
[27] = Tmax in Sprague-Dawley rat at 5 mg/kg, po measured after 24 hrs by LC-MS/MS analysis; type: ADME, organism-based; settings: in vivo
HT-1080 [28] = assay: Induction of apoptosis in human HT-1080 cells assessed as late apoptotic cells at 6 uM incubated for 12 hrs by Annexin V-FITC/PI staining based flow cytometric analysis (reference value: 0.60 %); type: functional
[29] = AUC (0 to t) in Sprague-Dawley rat at 5 mg/kg, po measured after 24 hrs by LC-MS/MS analysis; type: ADME, organism-based; settings: in vivo
HT-1080 [30] = assay: Cell cycle arrest in human HT-1080 cells assessed as G1 phase cells at 4 uM incubated for 24 hrs by PI staining based flow cytometric analysis (reference value: 58.1 %); type: functional
HT-1080 [31] = assay: Induction of apoptosis in human HT-1080 cells assessed as viable cells at 8 uM incubated for 48 hrs by Annexin V-FITC/PI staining based flow cytometric analysis (reference value: 96.07 %); type: functional; settings: read-out: Activity
[32] = test system: Isocitrate dehydrogenase [NADP] cytoplasmic (Homo sapiens), O75874 [R132C]; assay: Inhibition of recombinant human IDH1 R132C mutant extracted from Escherichia coli BL21 (DE3) cells using alpha-ketoglutarate as substrate at 0.2 uM incubated for 60 mins in presence of NADPH by absorbance based assay relative to control
Sequence of Isocitrate dehydrogenase [NADP] cytoplasmic (Homo sapiens), O75874 [R132C] (O75874 whole entry R132C): as the sequence (O75874 whole entry R132H) above, with H132C counted along it

[33] = target: Isocitrate dehydrogenase [NADP] cytoplasmic (Homo sapiens, UniProt O75874); assay: Inhibition of recombinant human wildtype IDH1 extracted from Escherichia coli BL21 (DE3) cells using alpha-ketoglutarate as substrate incubated for 60 mins in presence of NADPH by absorbance based assay
Sequence of Isocitrate dehydrogenase [NADP] cytoplasmic (O75874 whole entry): as the sequence (O75874 whole entry R132H) above, with H132R counted along it

[34] = Tmax in Sprague-Dawley rat at 0.5 mg/kg, iv measured after 24 hrs by LC-MS/MS analysis; type: ADME, organism-based; settings: in vivo

Cmax [6]: 766 ng/mL
Cmax [14]: 478 ng/mL
inhibition [18]: > 100%
clearance [19]: 27.3 mL/min/kg
Tmax [27]: 11.4 min
AUC(0-t) at 24 h [29]: 370 ng·h/mL
inhibition [32]: 65.9%
IC50 [33]: > 20 µM
Tmax [34]: 1.8 min
Structure (SMILES): COc1cc(O)c(-c2cc(-c3ccc(O)cc3)nc(N3CCNCC3)n2)cc1CC=C(C)C
Activity (HT-1080 [1]): 0.62%
Activity (HT-1080 [2]): 9.67%
Activity (HT-1080 [3]): 7.82%
Activity (HT-1080 [4]): 11.25%
Activity [5]: Non-Toxic
viability at 6 µM (HT-1080 [7]): 87.3%
inhibition in vivo at 20 mg/kg [8]: 75%
Activity (HT-1080 [9]): 5.1%
Activity (HT-1080 [10]): 3.25%
Activity (HT-1080 [11]): 4.16%
Activity (HT-1080 [12]): 22.9%
Activity (HT-1080 [13]): 5.26%
inhibition (HT-1080 [15]): Dose-Dependent Effect
Activity (HT-1080 [16]): 4.66%
GC50 (HT-1080 [17]): 1.38 µM
Activity [20]: Non-Toxic
Activity (HT-1080 [21]): 1.16%
viability at 2 µM (HT-1080 [22]): 88.8%
viability at 4 µM (HT-1080 [23]): 83.7%
Activity (HT-1080 [24]): Active
Activity (HT-1080 [25]): 2.13%
viability at 6 µM (HT-1080 [26]): 80.8%
Activity (HT-1080 [28]): 2.92%
Activity (HT-1080 [30]): 56.1%
viability at 8 µM (HT-1080 [31]): 69.6%

— ChEMBL document CHEMBL5608173, “Discovery of novel natural-product-derived mutant isocitrate dehydrogenases 1 inhibitors: Structure-based virtual screening, biological evaluation and structure-activity relationship study” (Eur J Med Chem, 2024)
